In this assay the target is T1, Trx-6×His-BCL6 (human BCL6 BTB domain covering amino-acid sequence 5-129) (Homo sapiens, UniProt P41182).
T1 construct: made in house
As to the kind of experiment: HTRF assay (BCL6 / BCOR peptide). The class given is binding. Particulars: 1 nM Trx-6×His-BCL6, 300 nM BCOR-AF633 peptide, 2 hours incubation at room temperature; read-out: HTRF avg pIC50 (converted). The procedure:
After 2 hours incubation at room temperature the plate was read on a Pherastar FSX (BMG Labtech) plate reader equipped with 337 nm laser excitation filter, a first emission filter at 620 nm and a second emission filter at 665 nm. The % inhibition at each concentration was calculated by normalising FRET ratio to the appropriate high (DMSO with all reagents) and low (DMSO without BCL6) controls.
(In TR-FRET formats the signal depends on donor and acceptor labels being close together.)

This is an account of results in patent US12528826B2, “[1,4]oxazepino[2,3-c]quinolinone derivatives as BCL6 inhibitors” (Cancer Research Technology Limited, priority 2019, dated 2026).

As for `CC1CCN(c2ncc(Cl)c(Nc3ccc4c(c3)c3c(c(=O)n4C)OCC(F)(F)[C@H](C4CC4)N3)n2)CC1C` (mixture of isomers) [Example 12x07, (2S)-10-((5-chloro-2-(3,4-dimethylpiperidin-1-yl)pyrimidin-4-yl)amino)-2-cyclopropyl-3,3-difluoro-7-methyl-1,2,3,4-tetrahydro-[1,4]oxazepino[2,3-c]quinolin-6(7H)-one], the IC50 is 46.8 nM. With `Cn1c(=O)c2c(c3cc(Nc4nc(N5CCC(F)(F)C(C(=O)N6CCC6)C5)ncc4Cl)ccc31)N[C@@H](C1CC1)C(F)(F)CO2` (mixture of isomers) [Example 12x18, (2S)-10-((2-(3-(azetidine-1-carbonyl)-4,4-difluoropiperidin-1-yl)-5-chloropyrimidin-4-yl)amino)-2-cyclopropyl-3,3-difluoro-7-methyl-1,2,3,4-tetrahydro-[1,4]oxazepino[2,3-c]quinolin-6(7H)-one] the figure was 5.5 nM. As to `Cn1c(=O)c2c(c3cc(Nc4nc(N5CCC(F)(F)C(C(=O)N6CC(F)(F)C6)C5)ncc4Cl)ccc31)N[C@@H](C1CC1)C(F)(F)CO2` (mixture of isomers) [Example 12x19, (2S)-10-((5-chloro-2-(3-(3,3-difluoroazetidine-1-carbonyl)-4,4-difluoropiperidin-1-yl)pyrimidin-4-yl)amino)-2-cyclopropyl-3,3-difluoro-7-methyl-1,2,3,4-tetrahydro-[1,4]oxazepino[2,3-c]quinolin-6(7H)-one], the IC50 was 5.89 nM. For the molecule `Cn1c(=O)c2c(c3cc(Nc4nc(N5CCC(F)(F)C(CC(=O)N6CC(F)(F)C6)C5)ncc4Cl)ccc31)N[C@@H](C1CC1)C(F)(F)CO2` (mixture of isomers) [Example 12x20, (2S)-10-((5-chloro-2-(3-(2-(3,3-difluoroazetidin-1-yl)-2-oxoethyl)-4,4-difluoropiperidin-1-yl)pyrimidin-4-yl)amino)-2-cyclopropyl-3,3-difluoro-7-methyl-1,2,3,4-tetrahydro-[1,4]oxazepino[2,3-c]quinolin-6(7H)-one], the IC50 is 3.72 nM.

Turning to `Cn1c(=O)c2c(c3cc(Nc4nc(N5CCC(F)(F)C(CC(=O)N6CCC6)C5)ncc4Cl)ccc31)N[C@@H](C1CC1)C(F)(F)CO2` (mixture of isomers) [Example 12x21, (2S)-10-((2-(3-(2-(azetidin-1-yl)-2-oxoethyl)-4,4-difluoropiperidin-1-yl)-5-chloropyrimidin-4-yl)amino)-2-cyclopropyl-3,3-difluoro-7-methyl-1,2,3,4-tetrahydro-[1,4]oxazepino[2,3-c]quinolin-6(7H)-one], the IC50 was 3.55 nM.

As for `CC1CCN1c1ncc(Cl)c(Nc2ccc3c(c2)c2c(c(=O)n3C)OCC(F)(F)[C@H](C3CC3)N2)n1` (mixture of isomers) [Example 12x36, (2S)-10-((5-chloro-2-(2-methylazetidin-1-yl)pyrimidin-4-yl)amino)-2-cyclopropyl-3,3-difluoro-7-methyl-1,2,3,4-tetrahydro-[1,4]oxazepino[2,3-c]quinolin-6(7H)-one], the IC50 was 7.76 nM. With `CC1CCCN(c2ncc(Cl)c(Nc3ccc4c(c3)c3c(c(=O)n4C)OCC(F)(F)[C@H](C4CC4)N3)n2)C1CO` (mixture of isomers) [Example 12x46, (2S)-10-((5-chloro-2-(2-(hydroxymethyl)-3-methylpiperidin-1-yl)pyrimidin-4-yl)amino)-2-cyclopropyl-3,3-difluoro-7-methyl-1,2,3,4-tetrahydro-[1,4]oxazepino[2,3-c]quinolin-6(7H)-one] the figure was 11.2 nM. For the molecule `Cn1c(=O)c2c(c3cc(Nc4nc(N5CCC(F)(F)CC5CO)ncc4Cl)ccc31)N[C@@H](C1CC1)C(F)(F)CO2` (mixture of isomers) [Example 12x50, (2S)-10-((5-chloro-2-(4,4-difluoro-2-(hydroxymethyl)piperidin-1-yl)pyrimidin-4-yl)amino)-2-cyclopropyl-3,3-difluoro-7-methyl-1,2,3,4-tetrahydro-[1,4]oxazepino[2,3-c]quinolin-6(7H)-one], the IC50 is 7.08 nM.

For the molecule `CCNC(=O)[C@@H]1C[C@H](C)CN(c2ncc(Cl)c(Nc3ccc4c(c3)c3c(c(=O)n4C)OCC(F)(F)[C@H](C4CC4)N3)n2)C1` (racemic) [Example 9c, (3R,5S)-1-(5-chloro-4-(((S)-2-cyclopropyl-3,3-difluoro-7-methyl-6-oxo-1,2,3,4,6,7-hexahydro-[1,4]oxazepino[2,3-c]quinolin-10-yl)amino)pyrimidin-2-yl)-N-ethyl-5-methylpiperidine-3-carboxamide; (3S,5R)-1-(5-chloro-4-(((S)-2-cyclopropyl-3,3-difluoro-7-methyl-6-oxo-1,2,3,4,6,7-hexahydro-[1,4]oxazepino[2,3-c]quinolin-10-yl)amino)pyrimidin-2-yl)-N-ethyl-5-methylpiperidine-3-carboxamide], the IC50 was 3.47 nM. In the case of `C[C@H]1C[C@@H](CO)CN(c2ncc(Cl)c(Nc3ccc4c(c3)c3c(c(=O)n4C)OCC(F)(F)[C@H](C4CC4)N3)n2)C1` (racemic) [Example 9d, (S)-10-((5-chloro-2-((3R,5S)-3-(hydroxymethyl)-5-methylpiperidin-1-yl)pyrimidin-4-yl)amino)-2-cyclopropyl-3,3-difluoro-7-methyl-1,2,3,4-tetrahydro-[1,4]oxazepino[2,3-c]quinolin-6(7H)-one; (S)-10-((5-chloro-2-((3S,5R)-3-(hydroxymethyl)-5-methylpiperidin-1-yl)pyrimidin-4-yl)amino)-2-cyclopropyl-3,3-difluoro-7-methyl-1,2,3,4-tetrahydro-[1,4]oxazepino[2,3-c]quinolin-6(7H)-one], the IC50 is 4.17 nM. With `Cn1c(=O)c2c(c3cc(Nc4nc(N5CCC(F)(F)C(O)C5)ncc4Cl)ccc31)N[C@@H](C1CC1)C(F)(F)CO2` (mixture of isomers) [Example 9e, (S)-10-((5-chloro-2-((R)-4,4-difluoro-3-hydroxypiperidin-1-yl)pyrimidin-4-yl)amino)-2-cyclopropyl-3,3-difluoro-7-methyl-1,2,3,4-tetrahydro-[1,4]oxazepino[2,3-c]quinolin-6(7H)-one; (S)-10-((5-chloro-2-((S)-4,4-difluoro-3-hydroxypiperidin-1-yl)pyrimidin-4-yl)amino)-2-cyclopropyl-3,3-difluoro-7-methyl-1,2,3,4-tetrahydro-[1,4]oxazepino[2,3-c]quinolin-6(7H)-one] the figure was 3.72 nM; with `Cn1c(=O)c2c(c3cc(Nc4nc(N5CCCC(CF)C5)ncc4Cl)ccc31)N[C@@H](C1CC1)C(F)(F)CO2` (mixture of isomers) [Example 9f, (S)-10-((5-chloro-2-((R)-3-(fluoromethyl)piperidin-1-yl)pyrimidin-4-yl)amino)-2-cyclopropyl-3,3-difluoro-7-methyl-1,2,3,4-tetrahydro-[1,4]oxazepino[2,3-c]quinolin-6(7H)-one; (S)-10-((5-chloro-2-((S)-3-(fluoromethyl)piperidin-1-yl)pyrimidin-4-yl)amino)-2-cyclopropyl-3,3-difluoro-7-methyl-1,2,3,4-tetrahydro-[1,4]oxazepino[2,3-c]quinolin-6(7H)-one], 10.2 nM. For `Cn1c(=O)c2c(c3cc(Nc4nc(N5CCC(F)(F)C(CC(N)=O)C5)ncc4Cl)ccc31)N[C@@H](C1CC1)C(F)(F)CO2` (mixture of isomers) [Example 9g] the value was 2.29 nM; for `CCNC(=O)C1CN(c2ncc(Cl)c(Nc3ccc4c(c3)c3c(c(=O)n4C)OCC(F)(F)[C@H](C4CC4)N3)n2)CCC1(F)F` (mixture of isomers) [Example 9j, (R)-1-(5-chloro-4-(((S)-2-cyclopropyl-3,3-difluoro-7-methyl-6-oxo-1,2,3,4,6,7-hexahydro-[1,4]oxazepino[2,3-c]quinolin-10-yl)amino)pyrimidin-2-yl)-N-ethyl-4,4-difluoropiperidine-3-carboxamide; (S)-1-(5-chloro-4-(((S)-2-cyclopropyl-3,3-difluoro-7-methyl-6-oxo-1,2,3,4,6,7-hexahydro-[1,4]oxazepino[2,3-c]quinolin-10-yl)amino)pyrimidin-2-yl)-N-ethyl-4,4-difluoropiperidine-3-carboxamide], 4.17 nM; for `CCN(CC1CN(c2ncc(Cl)c(Nc3ccc4c(c3)c3c(c(=O)n4C)OCC(F)(F)[C@H](C4CC4)N3)n2)CCC1(F)F)C(C)=O` (mixture of isomers) [Example 9k], 4.27 nM. For `Cn1c(=O)c2c(c3cc(Nc4nc(N5CC6CC5CC6(F)F)ncc4Cl)ccc31)N[C@@H](C1CC1)C(F)(F)CO2` (mixture of isomers) [Example 9l, (S)-10-((5-chloro-2-((1R,4R)-5,5-difluoro-2-azabicyclo[2.2.1]heptan-2-yl)pyrimidin-4-yl)amino)-2-cyclopropyl-3,3-difluoro-7-methyl-1,2,3,4-tetrahydro-[1,4]oxazepino[2,3-c]quinolin-6(7H)-one; (S)-10-((5-chloro-2-((1S,4S)-5,5-difluoro-2-azabicyclo[2.2.1]heptan-2-yl)pyrimidin-4-yl)amino)-2-cyclopropyl-3,3-difluoro-7-methyl-1,2,3,4-tetrahydro-[1,4]oxazepino[2,3-c]quinolin-6(7H)-one] the value was 11.7 nM; for `CCN1CC2CCC(C1=O)N2c1ncc(Cl)c(Nc2ccc3c(c2)c2c(c(=O)n3C)OCC(F)(F)[C@H](C3CC3)N2)n1` (mixture of isomers) [Example 9r, (S)-10-((5-chloro-2-((1S,5R)-3-ethyl-2-oxo-3,8-diazabicyclo[3.2.1]octan-8-yl)pyrimidin-4-yl)amino)-2-cyclopropyl-3,3-difluoro-7-methyl-1,2,3,4-tetrahydro-[1,4]oxazepino[2,3-c]quinolin-6(7H)-one; (S)-10-((5-chloro-2-((1R,5S)-3-ethyl-2-oxo-3,8-diazabicyclo[3.2.1]octan-8-yl)pyrimidin-4-yl)amino)-2-cyclopropyl-3,3-difluoro-7-methyl-1,2,3,4-tetrahydro-[1,4]oxazepino[2,3-c]quinolin-6(7H)-one], 3.63 nM.
